# Numbers after ± are expanded uncertainties.
# Columns and labels:
# [1] = xn = mol fraction of the nth substance listed; conditions: Liquid; for mass density: Vibrating tube method; for viscosity: Moving piston method
# [2] = 323.2 K, Liquid, Vibrating tube method
smiles,measurement,setting,value
CCCCCCCCCCCCCC [tetradecane] + CCCCCCCCCC,mass density,"[1]; 323.2 K, 100 kPa, x2 = 0",741.3 ± 0.4 kg/m3
same,mass density,"[1]; 323.2 K, 100 kPa, x2 = 0.25",734.3 ± 0.4 kg/m3
same,mass density,"[1]; 323.2 K, 100 kPa, x2 = 0.5",726.5 ± 0.4 kg/m3
same,mass density,"[1]; 323.2 K, 100 kPa, x2 = 0.75",717.2 ± 0.4 kg/m3
same,mass density,"[1]; 323.2 K, 1000 kPa, x2 = 0",742.1 ± 0.4 kg/m3
same,mass density,"[1]; 323.2 K, 1000 kPa, x2 = 0.25",735.1 ± 0.4 kg/m3
same,mass density,"[1]; 323.2 K, 1000 kPa, x2 = 0.5",727.4 ± 0.4 kg/m3
same,mass density,"[1]; 323.2 K, 1000 kPa, x2 = 0.75",718.1 ± 0.4 kg/m3
same,mass density,"[1]; 323.2 K, 2000 kPa, x2 = 0",742.9 ± 0.4 kg/m3
same,mass density,"[1]; 323.2 K, 2000 kPa, x2 = 0.25",735.9 ± 0.4 kg/m3
same,mass density,"[1]; 323.2 K, 2000 kPa, x2 = 0.5",728.2 ± 0.4 kg/m3
same,mass density,"[1]; 323.2 K, 2000 kPa, x2 = 0.75",719 ± 0.4 kg/m3
same,mass density,"[1]; 323.2 K, 3000 kPa, x2 = 0",743.7 ± 0.4 kg/m3
same,mass density,"[1]; 323.2 K, 3000 kPa, x2 = 0.25",736.7 ± 0.4 kg/m3
same,mass density,"[1]; 323.2 K, 3000 kPa, x2 = 0.5",729.1 ± 0.4 kg/m3
same,mass density,"[1]; 323.2 K, 3000 kPa, x2 = 0.75",719.8 ± 0.4 kg/m3
same,mass density,"[1]; 323.2 K, 4000 kPa, x2 = 0",744.4 ± 0.4 kg/m3
same,mass density,"[1]; 323.2 K, 4000 kPa, x2 = 0.25",737.5 ± 0.4 kg/m3
same,mass density,"[1]; 323.2 K, 4000 kPa, x2 = 0.5",729.8 ± 0.4 kg/m3
same,mass density,"[1]; 323.2 K, 4000 kPa, x2 = 0.75",720.7 ± 0.4 kg/m3
same,mass density,"[1]; 323.2 K, 5000 kPa, x2 = 0",745.2 ± 0.4 kg/m3
same,mass density,"[1]; 323.2 K, 5000 kPa, x2 = 0.25",738.3 ± 0.4 kg/m3
same,mass density,"[1]; 323.2 K, 5000 kPa, x2 = 0.5",730.7 ± 0.4 kg/m3
same,mass density,"[1]; 323.2 K, 5000 kPa, x2 = 0.75",721.6 ± 0.4 kg/m3
same,mass density,"[1]; 323.2 K, 6000 kPa, x2 = 0",746 ± 0.4 kg/m3
same,mass density,"[1]; 323.2 K, 6000 kPa, x2 = 0.25",739.1 ± 0.4 kg/m3
same,mass density,"[1]; 323.2 K, 6000 kPa, x2 = 0.5",731.5 ± 0.4 kg/m3
same,mass density,"[1]; 323.2 K, 6000 kPa, x2 = 0.75",722.5 ± 0.4 kg/m3
same,mass density,"[1]; 323.2 K, 7000 kPa, x2 = 0",746.7 ± 0.4 kg/m3
same,mass density,"[1]; 323.2 K, 7000 kPa, x2 = 0.25",739.9 ± 0.4 kg/m3
same,mass density,"[1]; 323.2 K, 7000 kPa, x2 = 0.5",732.4 ± 0.4 kg/m3
same,mass density,"[1]; 323.2 K, 7000 kPa, x2 = 0.75",723.2 ± 0.4 kg/m3
same,mass density,"[1]; 323.2 K, 8000 kPa, x2 = 0",747.5 ± 0.4 kg/m3
same,mass density,"[1]; 323.2 K, 8000 kPa, x2 = 0.25",740.7 ± 0.4 kg/m3
same,mass density,"[1]; 323.2 K, 8000 kPa, x2 = 0.5",733.2 ± 0.4 kg/m3
same,mass density,"[1]; 323.2 K, 8000 kPa, x2 = 0.75",724 ± 0.4 kg/m3
same,mass density,"[1]; 323.2 K, 9000 kPa, x2 = 0",748.2 ± 0.4 kg/m3
same,mass density,"[1]; 323.2 K, 9000 kPa, x2 = 0.25",741.5 ± 0.4 kg/m3
same,mass density,"[1]; 323.2 K, 9000 kPa, x2 = 0.5",734 ± 0.4 kg/m3
same,mass density,"[1]; 323.2 K, 9000 kPa, x2 = 0.75",724.9 ± 0.4 kg/m3
same,mass density,"[1]; 323.2 K, 10000 kPa, x2 = 0",749 ± 0.4 kg/m3
same,mass density,"[1]; 323.2 K, 10000 kPa, x2 = 0.25",742.2 ± 0.4 kg/m3
same,mass density,"[1]; 323.2 K, 10000 kPa, x2 = 0.5",734.8 ± 0.4 kg/m3
same,mass density,"[1]; 323.2 K, 10000 kPa, x2 = 0.75",725.8 ± 0.4 kg/m3
CCCCCCCCCC [decane] + O=C=O,viscosity,"[1]; 323.2 K, 1020 kPa, x2 = 0.094",0.56 ± 0.1 mPa·s
same,viscosity,"[1]; 323.2 K, 2080 kPa, x2 = 0.19",0.46 ± 0.1 mPa·s
same,viscosity,"[1]; 323.2 K, 2970 kPa, x2 = 0.263",0.42 ± 0.1 mPa·s
same,viscosity,"[1]; 323.2 K, 3940 kPa, x2 = 0.353",0.38 ± 0.1 mPa·s
same,viscosity,"[1]; 323.2 K, 4910 kPa, x2 = 0.429",0.33 ± 0.1 mPa·s
same,viscosity,"[1]; 323.2 K, 5960 kPa, x2 = 0.513",0.28 ± 0.1 mPa·s
same,mass density,"[1]; 323.3 K, 1020 kPa, x2 = 0.094",711 ± 2 kg/m3
same,mass density,"[1]; 323.3 K, 2080 kPa, x2 = 0.19",716 ± 2 kg/m3
same,mass density,"[1]; 323.3 K, 2970 kPa, x2 = 0.263",720 ± 2 kg/m3
same,mass density,"[1]; 323.3 K, 3940 kPa, x2 = 0.353",724 ± 2 kg/m3
same,mass density,"[1]; 323.3 K, 4910 kPa, x2 = 0.429",729 ± 2 kg/m3
same,mass density,"[1]; 323.3 K, 5960 kPa, x2 = 0.513",735 ± 2 kg/m3
CCCCCCCCCCCCCC [tetradecane] + O=C=O,viscosity,"[1]; 323.2 K, 980 kPa, x2 = 0.097",1.18 ± 0.1 mPa·s
same,viscosity,"[1]; 323.2 K, 2060 kPa, x2 = 0.196",1.08 ± 0.1 mPa·s
same,viscosity,"[1]; 323.2 K, 3000 kPa, x2 = 0.279",0.96 ± 0.1 mPa·s
same,viscosity,"[1]; 323.2 K, 4030 kPa, x2 = 0.358",0.79 ± 0.1 mPa·s
same,viscosity,"[1]; 323.2 K, 4960 kPa, x2 = 0.429",0.67 ± 0.1 mPa·s
same,viscosity,"[1]; 323.2 K, 6000 kPa, x2 = 0.496",0.56 ± 0.1 mPa·s
same,mass density,"[1]; 323.3 K, 980 kPa, x2 = 0.097",744 ± 2 kg/m3
same,mass density,"[1]; 323.3 K, 2060 kPa, x2 = 0.196",748 ± 2 kg/m3
same,mass density,"[1]; 323.3 K, 3000 kPa, x2 = 0.279",751 ± 2 kg/m3
same,mass density,"[1]; 323.3 K, 4030 kPa, x2 = 0.358",755 ± 2 kg/m3
same,mass density,"[1]; 323.3 K, 4960 kPa, x2 = 0.429",758 ± 2 kg/m3
same,mass density,"[1]; 323.3 K, 6000 kPa, x2 = 0.496",762 ± 2 kg/m3
CCCCCCCCCCCCCC [tetradecane],mass density,[2]; 100 kPa,741.3 ± 0.4 kg/m3
same,mass density,[2]; 1000 kPa,742.1 ± 0.4 kg/m3
same,mass density,[2]; 2000 kPa,742.9 ± 0.4 kg/m3
same,mass density,[2]; 3000 kPa,743.7 ± 0.4 kg/m3
same,mass density,[2]; 4000 kPa,744.4 ± 0.4 kg/m3
same,mass density,[2]; 5000 kPa,745.2 ± 0.4 kg/m3
same,mass density,[2]; 6000 kPa,746 ± 0.4 kg/m3
same,mass density,[2]; 7000 kPa,746.7 ± 0.4 kg/m3
same,mass density,[2]; 8000 kPa,747.5 ± 0.4 kg/m3
same,mass density,[2]; 9000 kPa,748.2 ± 0.4 kg/m3
same,mass density,[2]; 10000 kPa,749 ± 0.4 kg/m3
CCCCCCCCCC [decane],mass density,[2]; 100 kPa,707 ± 0.3 kg/m3
same,mass density,[2]; 1000 kPa,707.9 ± 0.4 kg/m3
same,mass density,[2]; 2000 kPa,708.8 ± 0.4 kg/m3
same,mass density,[2]; 3000 kPa,709.7 ± 0.4 kg/m3
same,mass density,[2]; 4000 kPa,710.6 ± 0.4 kg/m3
same,mass density,[2]; 5000 kPa,711.5 ± 0.4 kg/m3
same,mass density,[2]; 6000 kPa,712.4 ± 0.4 kg/m3
same,mass density,[2]; 7000 kPa,713.3 ± 0.4 kg/m3
same,mass density,[2]; 8000 kPa,714.1 ± 0.4 kg/m3
same,mass density,[2]; 9000 kPa,715 ± 0.4 kg/m3
same,mass density,[2]; 10000 kPa,715.9 ± 0.4 kg/m3
CCCCCCCCCC [decane] + CCCCCCCCCCCCCC,mass density,"[1]; 323.2 K, 100 kPa, x1 = 1",707 ± 0.3 kg/m3
same,mass density,"[1]; 323.2 K, 1000 kPa, x1 = 1",707.9 ± 0.4 kg/m3
same,mass density,"[1]; 323.2 K, 2000 kPa, x1 = 1",708.8 ± 0.4 kg/m3
same,mass density,"[1]; 323.2 K, 3000 kPa, x1 = 1",709.7 ± 0.4 kg/m3
same,mass density,"[1]; 323.2 K, 4000 kPa, x1 = 1",710.6 ± 0.4 kg/m3
same,mass density,"[1]; 323.2 K, 5000 kPa, x1 = 1",711.5 ± 0.4 kg/m3
same,mass density,"[1]; 323.2 K, 6000 kPa, x1 = 1",712.4 ± 0.4 kg/m3
same,mass density,"[1]; 323.2 K, 7000 kPa, x1 = 1",713.3 ± 0.4 kg/m3
same,mass density,"[1]; 323.2 K, 8000 kPa, x1 = 1",714.1 ± 0.4 kg/m3
same,mass density,"[1]; 323.2 K, 9000 kPa, x1 = 1",715 ± 0.4 kg/m3
same,mass density,"[1]; 323.2 K, 10000 kPa, x1 = 1",715.9 ± 0.4 kg/m3

# Reference: the NIST ThermoML archive (doi:10.1016/j.jct.2012.08.019)
